Molecules are shown by their SMILES.

The target in this experiment is Histamine H2 receptor (Cavia porcellus, UniProt P47747). The experiment in a line: Histamine H2 receptor antagonistic activity on the isolated spontaneously beating guinea pig right atrium. In kind it is functional, tissue-based, Cardiac atrium. To be noted: read-out: pA2 (converted).
Histamine H2 receptor, sequence (P47747 whole entry): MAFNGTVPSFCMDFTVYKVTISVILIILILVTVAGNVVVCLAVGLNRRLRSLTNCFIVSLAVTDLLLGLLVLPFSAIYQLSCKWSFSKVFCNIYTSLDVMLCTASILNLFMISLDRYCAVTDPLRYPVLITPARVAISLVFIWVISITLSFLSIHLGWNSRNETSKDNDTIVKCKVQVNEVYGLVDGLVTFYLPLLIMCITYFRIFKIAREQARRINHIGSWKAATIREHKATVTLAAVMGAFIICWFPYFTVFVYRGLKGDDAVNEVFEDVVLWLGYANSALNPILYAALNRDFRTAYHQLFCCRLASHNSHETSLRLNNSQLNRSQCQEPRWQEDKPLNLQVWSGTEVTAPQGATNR
On to `CC(=O)OCC(=O)NCCCOc1cccc(CN2CCCCC2)c1` [ROXATIDINE ACETATE], for which the Kb is 38.9 nM.
Turning to `N#CN/C(=N\CCNC(=O)c1c2ccccc2nc2ccccc12)NCCCOc1cccc(CN2CCCCC2)c1`, the Kb is 182 nM.
Turning to `CN/C(=C/[N+](=O)[O-])NCCSCc1ccc(CN(C)C)o1` [RANITIDINE], the Kb is 170 nM.
On to `N#CN/C(=N\CCNC(=O)c1ccc(C2c3ccc(O)cc3OC3=CC(=O)C=CC32)c(C(=O)O)c1)NCCCOc1cccc(CN2CCCCC2)c1` (stereo not given), for which the Kb is 66100 nM.
The value for `NC(N)=Nc1nc(CSCCC(N)=NS(N)(=O)=O)cs1` [FAMOTIDINE] was 18.2 nM.
The value for `N#CN/C(=N\CCCCNC(=O)c1ccc(C(=O)O)c(C2c3ccc(O)cc3OC3=CC(=O)C=CC32)c1)NCCCOc1cccc(CN2CCCCC2)c1` (stereo not given) was 10000 nM.
Consider `N#CN/C(=N\CCN)NCCCOc1cccc(CN2CCCCC2)c1`, for which the Kb was 1100 nM.
On to `CC(=O)c1ccc2n(c1=O)[C@H](COC(=O)CCC(=O)NCCCOc1cccc(CN3CCCCC3)c1)Cc1c-2[nH]c2ccccc12`, for which the Kb was 1820 nM.
Turning to `N#CN=C(NCCCCCCCCNc1ccc([N+](=O)[O-])c2n[o+][n-]c12)NCCCOc1cccc(CN2CCCCC2)c1`, the Kb is 11 nM.
With `N#CN/C(=N\CCCCNC(=O)c1ccc(C2c3ccc(O)cc3OC3=CC(=O)C=CC32)c(C(=O)O)c1)NCCCOc1cccc(CN2CCCCC2)c1` (stereo not given), the Kb was 8910 nM.
The value for `CN(C)c1cccc2c(S(=O)(=O)NCC/N=C(\NC#N)NCCCOc3cccc(CN4CCCCC4)c3)cccc12` was 1950 nM; that for `N#CN/C(=N\CCCCCCNc1ccc([N+](=O)[O-])c2nonc12)NCCCOc1cccc(CN2CCCCC2)c1` was 32.4 nM.
Consider `N#CN/C(=N\CCNC(=O)CCCCCNc1ccc([N+](=O)[O-])c2nonc12)NCCCOc1cccc(CN2CCCCC2)c1`, for which the Kb was 25.7 nM.
In the case of `N#CN/C(=N\CCCNc1ccc([N+](=O)[O-])c2nonc12)NCCCOc1cccc(CN2CCCCC2)c1`, the Kb is 37.2 nM.
Under `N#CN/C(=N\CCNC(=O)c1ccc(C(=O)O)c(C2c3ccc(O)cc3OC3=CC(=O)C=CC32)c1)NCCCOc1cccc(CN2CCCCC2)c1` (stereo not given) stands 44700 nM.

(Values after ChEMBL document CHEMBL1136385, “Synthesis and pharmacological activity of fluorescent histamine H2 receptor antagonists related to potentidine” (Bioorg Med Chem Lett, 2003).)
